The test system of assay [1] is T-Rex 293 cell line SC3 cells having increased expression of androgen receptor protein due to exposure to doxycycline. In words: Cellular growth inhibition, T-Rex 293 SC3 cells with doxycycline (increased androgen receptor expression), CellTiter-Glo. It is filed as cell-based. As to conditions: T-Rex 293 SC3 cells with 10 ng/mL doxycycline (increased androgen receptor expression), 72 hours, CellTiter-Glo 2.0. The gist of the method: (§1)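 Doxycycline (10 ng/mL) was either included or omitted to toggle wild-type androgen receptor expression in SC3 cells, a T-Rex 293 clone, grown in stripped-serum, phenol red-free medium. After 72 hours with compound, viable cells were quantified by CellTiter-Glo 2.0.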

Assay [2] concerns T-Rex 293 cell line SC3 cells lacking increased expression of androgen receptor protein. In words: Cellular growth inhibition, T-Rex 293 SC3 cells without doxycycline (no increased androgen receptor expression), CellTiter-Glo. As to conditions: T-Rex 293 SC3 cells not exposed to doxycycline (no increased androgen receptor expression), 72 hours. The class given is cell-based. The gist of the method: as §1
Background: In ATP-based viability assays light output follows the ATP content of the culture.

In a further assay the test system is VCaP cells. The assay is described as follows: Cellular growth inhibition assay for VCaP cells, CellTiter-Glo. The class given is cell-based, human. Conditions: 72 hours. The gist of the method:
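GI50 values come from four-parameter curve fits of luminescence data normalized to a zero baseline. Compound, in medium with 0.5% DMSO, was added one day after plating and left for 72 h before CellTiter-Glo 2.0 addition.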

The next assay deals with T47D cells. The assay is described as follows: Cellular Growth Inhibition Assay for T47D Cells (CellTiter-Glo). Conditions: 72 hours. It is filed as cell-based, human. In a few lines: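 GI50 values derive from four-parameter regression of CellTiter-Glo 2.0 luminescence, using zero luminescence as baseline. Human breast cancer T47D cells (3000/well; DMEM, 10% FBS, 0.2 units/mL insulin) were exposed for 72 h to compound dilutions at 0.5% DMSO, with dosing starting 24 h after seeding.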

By GI50 is commonly meant the concentration at which growth is held to half of that of the control. Low readings indicate greater sensitivity of the cells, high ones lower sensitivity of the cells. For `Cn1cc(-c2cc3c(cc2Oc2ccc(N4CC(CC5CN(c6ncc(C(=O)N[C@H]7C(C)(C)[C@H](Oc8ccc(C#N)c(Cl)c8)C7(C)C)cn6)C5)C4)cc2)CCC3(C)O)c2cc[nH]c2c1=O` (some centres unmarked) [Compound I-329, N-[3-(3-chloro-4-cyano-phenoxy)-2,2,4,4-tetramethyl-cyclobutyl]-2-[3-[[1-[4-[1-hydroxy-1-methyl-6-(6-methyl-7-oxo-1H-pyrrolo[2,3-c]pyridin-4-yl)indan-5-yl]oxyphenyl]azetidin-3-yl]methyl]azetidin-1-yl]pyrimidine-5-carboxamide], the GI50 was less than 500 nM in assay [1], more than 3000 nM in assay [2], less than 500 nM in the assay with VCaP cells (Homo sapiens) and more than 3000 nM in the assay with T47D cells (Homo sapiens).
Take `CCS(=O)(=O)Nc1ccc(Oc2cccc(N3CC(CC4CCN(c5ncc(C(=O)N[C@H]6C(C)(C)[C@H](Oc7ccc(C#N)c(Cl)c7)C6(C)C)cn5)CC4)C3)c2)c(-c2cn(C)c(=O)c3[nH]ccc23)c1` [Compound I-79]: the GI50 in assay [1] was less than 500 nM; in assay [2], 500 to 1500 nM; in the assay on VCaP cells (Homo sapiens), less than 500 nM; in the assay on T47D cells (Homo sapiens) it was less than 500 nM.
On to `CC(=O)N(C)c1ccc(Oc2cccc(OCCOC3CCN(c4ncc(C(=O)N[C@H]5C(C)(C)[C@H](Oc6ccc(C#N)c(Cl)c6)C5(C)C)cn4)CC3)c2)c(-c2cn(C)c(=O)c3[nH]ccc23)c1` [Compound I-58], for which the GI50 in assay [1] was less than 500 nM; in assay [2], more than 3000 nM; in the assay with VCaP cells (Homo sapiens) it was less than 500 nM; with T47D cells (Homo sapiens), 500 to 1500 nM.
As for `Cn1cc(-c2cc(C(C)(C)O)ccc2Oc2ccc(CCCC3CCCN(c4ncc(C(=O)N[C@H]5C(C)(C)[C@H](Oc6ccc(C#N)c(Cl)c6)C5(C)C)cn4)C3)cc2)c2cc[nH]c2c1=O` (some centres unmarked) [Compound I-306], the GI50 was less than 500 nM in assay [1], more than 3000 nM in assay [2], 500 to 1500 nM with VCaP cells and more than 3000 nM with T47D cells.
With `Cn1cc(-c2cc(C(C)(C)O)ccc2Oc2ccc(N3CC4(CCCN(c5ncc(C(=O)N[C@H]6C(C)(C)[C@H](Oc7ccc(C#N)c(Cl)c7)C6(C)C)cn5)C4)C3)cc2)c2cc[nH]c2c1=O` [Compound I-343], the GI50 is less than 500 nM in assay [1], more than 3000 nM in assay [2], less than 500 nM in the assay with VCaP cells and less than 500 nM in the assay on T47D cells.
As to `Cn1cc(-c2cc(C(C)(C)O)ccc2Oc2ccc(OC3CC4(C3)CC3(CCN(c5ncc(C(=O)N[C@H]6C(C)(C)[C@H](Oc7ccc(C#N)c(Cl)c7)C6(C)C)cn5)CC3)C4)cc2)c2cc[nH]c2c1=O` [Compound I-326], the GI50 in assay [1] is less than 500 nM; in assay [2] it was more than 3000 nM; in the assay with VCaP cells (Homo sapiens), less than 500 nM; with T47D cells (Homo sapiens) it was less than 500 nM.
In the case of `CCS(=O)(=O)Nc1ccc(Oc2cccc(N3CCC(N(C)C4CCN(c5ncc(C(=O)N[C@H]6C(C)(C)[C@H](Oc7ccc(C#N)c(Cl)c7)C6(C)C)cn5)CC4)C3)c2)c(-c2cn(C)c(=O)c3[nH]ccc23)c1` (some centres unmarked) [Compound I-41], the GI50 in assay [1] was less than 500 nM; in assay [2], 500 to 1500 nM; in the assay with VCaP cells (Homo sapiens), less than 500 nM; in the assay on T47D cells (Homo sapiens), less than 500 nM.
For the compound `Cn1cc(-c2cc(C(C)(C)O)ccc2Oc2ccc(CN3CC4(C3)CN(c3ncc(C(=O)N[C@H]5C(C)(C)[C@H](Oc6ccc(C#N)c(Cl)c6)C5(C)C)cn3)CCO4)cc2)c2cc[nH]c2c1=O` [Compound I-300], the GI50 (in assay [1]; in assay [2]; in the assay with VCaP cells; in the assay with T47D cells) was less than 500 nM in each case.
As for `Cn1cc(-c2cc(C(C)(C)O)ccc2OCC(CCOC2CCN(c3ncc(C(=O)N[C@H]4C(C)(C)[C@H](Oc5ccc(C#N)c(Cl)c5)C4(C)C)cn3)CC2)C2CC2)c2cc[nH]c2c1=O` (some centres unmarked) [Compound I-265], the GI50 in assay [1] was less than 500 nM; in assay [2], 500 to 1500 nM; in the assay with VCaP cells, 500 to 1500 nM; in the assay on T47D cells, 1500 to 3000 nM.
Take `CCS(=O)(=O)Nc1ccc(Oc2cccc(N3CCC(C4CN(c5ncc(C(=O)N[C@H]6C(C)(C)[C@H](Oc7ccc(C#N)c(Cl)c7)C6(C)C)cn5)C4)CC3)c2)c(-c2cn(C)c(=O)c3[nH]ccc23)c1` [Compound I-182]: the 50% growth inhibitory concentration (GI50) in assay [1] is less than 500 nM; in assay [2], more than 3000 nM; with VCaP cells (Homo sapiens), less than 500 nM; with T47D cells (Homo sapiens) it was less than 500 nM.
In the case of `CCS(=O)(=O)Nc1ccc(Oc2cccc(CCC3CCN(c4ncc(C(=O)N[C@H]5C(C)(C)[C@H](Oc6ccc(C#N)c(Cl)c6)C5(C)C)cn4)CC3)c2F)c(-c2cn(C)c(=O)c3[nH]ccc23)c1` [Compound I-165], the GI50 is less than 500 nM in assay [1], more than 3000 nM in assay [2], less than 500 nM with VCaP cells (Homo sapiens) and less than 500 nM in the assay on T47D cells (Homo sapiens).
Take `Cn1cc(-c2cc(C(C)(C)O)ccc2OC2CC3CC2CC3OCC2CCN(c3ncc(C(=O)N[C@H]4C(C)(C)[C@H](Oc5ccc(C#N)c(Cl)c5)C4(C)C)cn3)CC2)c2cc[nH]c2c1=O` (some centres unmarked) [Compound I-296]: the GI50 in assay [1] was less than 500 nM; in assay [2] it was more than 3000 nM; in the assay on VCaP cells, less than 500 nM; in the assay with T47D cells, more than 3000 nM.
With `Cn1cc(-c2cc(C(C)(C)O)ccc2Oc2cccc(OCCC3CC4(C3)CN(c3ncc(C(=O)N[C@H]5C(C)(C)[C@H](Oc6ccc(C#N)c(Cl)c6)C5(C)C)cn3)C4)c2F)c2cc[nH]c2c1=O` [Compound I-210], the GI50 in assay [1] was less than 500 nM; in assay [2], less than 500 nM; with VCaP cells, less than 500 nM; in the assay on T47D cells, 500 to 1500 nM.
Take `Cn1cc(-c2cc(C(C)(C)O)ccc2Oc2cccc(N3CC(CN4CC5CC4CN5c4ncc(C(=O)N[C@H]5C(C)(C)[C@H](Oc6ccc(C#N)c(Cl)c6)C5(C)C)cn4)C3)c2F)c2cc[nH]c2c1=O` (some centres unmarked) [Compound I-241]: the concentration for 50% growth inhibition (GI50) (in assay [1]; in assay [2]; in the assay with VCaP cells; with T47D cells) was less than 500 nM throughout.
For `Cn1cc(-c2cc(C(C)(C)O)ccc2Oc2ccc(C3CC(N4CCN(c5ncc(C(=O)N[C@H]6C(C)(C)[C@H](Oc7ccc(C#N)c(Cl)c7)C6(C)C)cn5)CC4)C3)cc2)c2cc[nH]c2c1=O` (some centres unmarked) [Compound I-311], the GI50 in assay [1] is less than 500 nM; in assay [2] it was 500 to 1500 nM; in the assay on VCaP cells, less than 500 nM; with T47D cells it was less than 500 nM.
`Cn1cc(-c2cc(C(C)(C)O)ccc2Oc2ccc(N3CC4(CCCN(c5cnc(C(=O)N[C@H]6C(C)(C)[C@H](Oc7ccc(C#N)c(Cl)c7)C6(C)C)cn5)C4)C3)cc2)c2cc[nH]c2c1=O` [Compound I-342]: the GI50 in assay [1] was less than 500 nM; in assay [2], more than 3000 nM; with VCaP cells, less than 500 nM; in the assay on T47D cells it was less than 500 nM.
As to `Cn1cc(-c2cc(C(C)(C)O)ccc2Oc2ccc(CN3CC4(C3)CN(c3ncc(C(=O)N[C@H]5C(C)(C)[C@H](Oc6ccc(C#N)c(Cl)c6)C5(C)C)cn3)C4)cc2)c2cc[nH]c2c1=O` [Compound I-327], the GI50 (in assay [1]; in assay [2]; in the assay with VCaP cells (Homo sapiens); in the assay with T47D cells (Homo sapiens)) was less than 500 nM throughout.
For `Cn1cc(-c2cc(C(C)(C)O)ccc2OC(CCCOC2CCN(c3ncc(C(=O)N[C@H]4C(C)(C)[C@H](Oc5ccc(C#N)c(Cl)c5)C4(C)C)cn3)CC2)C2CC2)c2cc[nH]c2c1=O` (some centres unmarked) [Compound I-244], the 50% growth inhibitory concentration (GI50) was less than 500 nM in assay [1], 500 to 1500 nM in assay [2], less than 500 nM in the assay with VCaP cells and 500 to 1500 nM with T47D cells.
For the compound `Cn1cc(-c2cc(C(C)(C)O)ccc2Oc2ccc(N3CC(CC4CN(C5CCC(C(=O)N[C@H]6C(C)(C)[C@H](Oc7ccc(C#N)c(Cl)c7)C6(C)C)CC5)C4)C3)cc2)c2cc[nH]c2c1=O` (some centres unmarked) [Compound I-313], the GI50 in assay [1] is 500 to 1500 nM; in assay [2], 500 to 1500 nM; with VCaP cells (Homo sapiens), less than 500 nM; with T47D cells (Homo sapiens), less than 500 nM.
Turning to `Cn1cc(-c2cc(C(C)(C)O)ccc2Oc2ccc(OC3CCN(C4CCN(c5ncc(C(=O)N[C@H]6C(C)(C)[C@H](Oc7ccc(C#N)c(Cl)c7)C6(C)C)cn5)CC4)CC3)cc2)c2cc[nH]c2c1=O` [Compound I-328], the GI50 (in assay [1]; in assay [2]; in the assay on VCaP cells (Homo sapiens); in the assay with T47D cells (Homo sapiens)) was less than 500 nM each time.

The values are drawn from patent US20250388605A1, “HETEROBIFUNCTIONAL COMPOUNDS AND METHODS OF TREATING DISEASE” (Halda Therapeutics OpCo, Inc., priority 2022, published 2025).
